Data: US12653827B2, “Methods of treating indolent systemic mastocytosis” (Telios Pharma Inc., priority 2024, dated 2026)
Several values for one entry are separate records, joined by “and”; a condition that tells them apart may be missing. Equal entries are not always repeated. Where two headings read alike, the source gives them in different places.

Experiments:
[1] = tested on: basophils; assay: Basophil Activation Test (BAT), CD63, anti-FcεR stimulated blood from healthy donors; type: cell-based, human; conditions: for EC50: Homo sapiens
Procedure: (§1) The BAT was conducted as set forth in Santos (2021) Allergy, 76:2420-2432. Blood from six healthy donors was drawn and Compound 128 was added at various concentrations (10 μM, 3.16 μM, 1 μM, 0.3 μM, 0.1 μM, 0.03 μM, or 0 μM). Blood samples were gently rocked at room temperature for 2 hours, 24 hours, or 48 hours. The BAT assay using the Flow Cast Basophil Activation Kit (Buhlmann Diagnostics; Catalog #B-CCR-STCON) was then conducted following manufacturer instructions by (1) stimulating the blood with anti-FcεR stimulation control in stimulation buffer with IL-3 and staining cells for CCR3 and CD63 for 15 minutes at 37° C., (2) lysing red blood cells and fixing cells with Lysing Reagent at room temperature for 10 minutes, (3) washing cells with Wash Buffer, and (4) acquiring data on a flow cytometer. Activated basophils were defined as CCR3+, low side scatter and CD63+. Percent of activated basophils was calculated as number of activated basophils over the total number of basophils. A four-parameter logistic regression was applied to determine the EC50 and EC90.

[2] = tested on: human mast cells; assay: ISM-like mast cell chemotaxis towards conditioned media (Transwell); type: cell-based; conditions: ISM-like conditions, four healthy donors, treated two hours
Procedure: Human mast cells were differentiated from bone marrow CD34+ cells from four healthy donors as set forth in Example 4. Cells were used to produce conditioned media in ISM-like conditions. Conditioned media was the supernatant collected from mast cells cultured with stem cell factor (100 ng/mL), sensitized with NP-IgE (0.1 μg/mL) for 18 hours, treated with Compound 128 for two hours, and stimulated with NP-BSA (antigen; 0.1 μg/mL) for four hours. Migration of mast cells in the top chamber on Transwell […] inserts (Corning) towards the antigen-stimulated conditioned media in the bottom chamber was quantified after four hours using the CellTiter-Glo™ Luminescent Cell Viability Assay Kit (Promega). The amount of luminescence is correlated with live cell numbers. Fold change over the non-activated control was calculated.

[3] = tested on: basophils; assay: BAT (CD63) on blood of dosed ISM patients; type: in vivo, human
Procedure: as §1, with “EC90. […]” for “EC90.”
The BAT assay measuring CD63 used the Flow Cast Basophil Activation Kit method and percent activated basophils were calculated as described in Example 1. Percent inhibition of CD63 activation was calculated as (100−(Sample condition−Unstimulated DMSO control)/(Stimulated DMSO control−Unstimulated DMSO control)×100).

[4] = Clinical study in ISM patients, total symptom score (ISM-TSAF, SISM-TSAF); type: in vivo, human; conditions: 100 mg or 150 mg BID
Procedure: Efficacy of Compound 128 will be evaluated among adult subjects diagnosed with ISM as defined by WHO diagnostic criteria. The subjects have moderate-to-severe symptoms based on minimum mean total symptom scores (TSS) of ISM-TSAF over the 14-day eligibility screening period for assessment of TSS of ISM-TSAF. Minimum baseline TSS of ISM-TSAF for eligibility is >28. Subjects will receive either 50, 75, 100 or 150 mg BID of Compound 128 plus best supportive care. Subject will be treated for twenty-four weeks and will be evaluated at twelve weeks and twenty-four weeks. Evaluation will be based on the 14-day rolling average TSS of ISM-TSAF or SISM-TSAF. The TSS of ISM-TSAF is based on patient reporting on eleven separate symptoms, measuring the severity of a broad range of mastocytosis-related symptoms over the prior 24 hours, based on a score from zero (no symptoms) to ten (worst possible symptoms experienced) scale for a TSS between 0-110. The eleven symptoms to be scored by the subject are fatigue, abdominal pain, diarrhea, skin spots, itching, flushing, brain fog, headache, dizziness and bone pain. The TSS of SISM-TSAF is based on patient reporting on nine separate symptoms based on a score from zero (no symptoms) to ten (worst possible symptoms experienced). The nine symptoms to be scored by the subject are muscle pain, runny nose, nasal congestion, wheezing, shortness of breath, throat itching, heart palpitations, difficulty concentrating, and diarrhea. The first eight items measure the severity of a broad range of mastocytosis-related symptoms over the prior 24 hours. Each of the first eight symptom is assessed on a 0 (None) to 10 (Worst Imaginable) scale for a TSS between 0-80. The 9th item measures incidence of diarrhea over the prior 24 hours. Endpoints will also be based on mean change in TSS of ISM-TSAF or SISM-TSAF based on 14-day average of patient-reported severity of ISM symptoms; mean change in serum tryptase level, KIT D816V VAF, change in best supportive care medications and change in number of anaphylactic episodes.
Five ISM patients have been treated with Compound 128 at 100 mg or 150 mg BID. At week 12, the TSS of ISM-TSAF is reduced by 28 points compared to the placebo group (FIG. 24), and the TSS of SISM-TSAF is reduced by 22.7 points, compared to the placebo (FIG. 25). In contrast, avapritinib 25 mg QD reduced the TSS of ISM-TSAF by 5.7 points at week 24 (FIG. 23). The average reduction of total symptom score of ISM-TSAF is 55% compared to the baseline while the average reduction of total symptom score of ISM-TSAF is 38% compared to the placebo group (FIG. 28).

**Q.** Which results are given for `C=CC(=O)N1CCC(F)(CNc2ncnc(N)c2-c2ccc(Oc3ccccc3)cc2)CC1` [Compound 128, 1-(4-(((6-amino-5-(4-phenoxyphenyl)pyrimidin-4-yl)amino)methyl)-4-fluoropiperidin-1-yl)prop-2-en-1-one]?
**A.** EC50 ([1]; 2-hour drug exposure, blood from six healthy donors, read-out: average EC50, inhibition of anti-FcεR induced basophil activation (CD63+)): 500 nM; EC50 ([1]; 24-hour drug exposure, blood from six healthy donors, read-out: average EC50, inhibition of anti-FcεR induced basophil activation (CD63+)): 120 nM; EC50 ([1]; 48-hour drug exposure, blood from six healthy donors, read-out: average EC50, inhibition of anti-FcεR induced basophil activation (CD63+)): 100 nM; EC50 ([1]; 24 hours exposure, Example 2, read-out: average EC50 (n=4), CD63 normalized to DMSO control in CCR3+ basophils): 120 nM; potency increase of basophil activation inhibition ([1]; after 24 hours drug exposure): approximately 4 fold; chemoattractant activity of mast cells (chemotaxis towards conditioned media) [2]: inhibited; inhibition of basophil activation ([3]; ISM patients, 100 mg or 150 mg BID): effective in inhibiting basophil activation; percent inhibition of CD63 activation of basophils, dose dependence ([3]; ISM patients, 50, 75, 100 or 150 mg BID): greater inhibition of basophil activation is achieved in ISM patients with greater dosing; average reduction of total symptom score of ISM-TSAF compared to the placebo group [4]: 38%; average reduction of total symptom score of ISM-TSAF compared to the baseline ([4]; 12-week treatment): 55%; reduction of TSS of ISM-TSAF compared to the placebo group ([4]; week 12): 28.0 points and 28 points; reduction of TSS of SISM-TSAF compared to the placebo ([4]; week 12): 22.7 points
